The record followed here is ChEMBL document CHEMBL6092155, “211At radiolabeled APBA-FAPI for enhanced targeted-alpha therapy of glioma” (Eur J Med Chem, 2024).

Data set [1] is described as follows: Stability of the compound in fetal bovine serum assessed as radiochemical purity (RCP) incubated for 3 to 24 hrs relative to control. The format is ADME, cell-free, Bos taurus. As to conditions: cattle, time 3-24 hrs.
A short description of data set [2]: Stability of compound in PBS incubated for 3 to 24 hrs assessed as radiochemical purity (RCP) relative to control. The format is physicochemical. The note with it: buffer; time 3-24 hrs.
In data set [3] the target is T1, Albumin (Homo sapiens, UniProt P02768). As to the kind of experiment: Binding affinity to human serum albumin assessed as binding rate incubated for 30 min relative to control. It counts as ADME. The note with it: isolated protein, 0.5 h.
Data set [4] can be described thus: Octanol/[…] partition coefficient, log P of the compound. It counts as physicochemical.
In data set [5] the target is T1, Albumin. Briefly: Binding affinity to human serum albumin assessed as decrease in HAS binding incubated for 30 mins under warfarin blocking relative to control. On the set-up: scale not given: the % may be the effect or the level left. The note with it: isolated protein, 0.5 h. The format is ADME.
For data set [6], the target named is T1, Albumin. As to the kind of experiment: Binding affinity to human serum albumin assessed as decrease in HAS binding incubated for 30 mins under ibuprofen relative to control. The format is ADME. The arrangement: scale not given: the % may be the effect or the level left. The note with it: isolated protein, 0.5 h.
Data set [7] can be described thus: Drug penetration in human FAPalpha-positive U-87 MG cells assessed as blood brain barrier translocation rate incubated upto 4 hrs by invitro BBB assay (reference value: 0.54+/-0.12%). The format is ADME, cell-based. The note with it: u-87mg atcc.
The nature of data set [8]: Drug uptake in human FAPalpha-positive U-87 MG cells incubated for 30 to 120 min by gamma counter analysis relative to control. The format is ADME, cell-based. The note with it: u-87mg atcc, time 30-120 min.
Data set [9] can be described thus: Drug uptake in human U-87 MG cells incubated for 120 min under FAPI-04 monomer blocking condition by gamma counter analysis relative to control. The note with it: u-87mg atcc, 2 h. The format is ADME, cell-based.
The test system of data set [10] is U-87 MG. Briefly: Antiproliferative activity against human U-87 MG cells assessed as inhibition of cell viability at 18.5 KBq incubated for 12 hrs followed by replacement with fresh media and measured after 24 hrs by CCK-8 method relative to control. It counts as functional, U-87MG ATCC.
The test system of data set [11] is U-87 MG. Briefly: Antiproliferative activity against human U-87 MG cells assessed as inhibition of cell viability at 148 KBq incubated for 12 hrs followed by replacement with fresh media and measured after 24 hrs by CCK-8 method relative to control. The format is functional, U-87MG ATCC.
For data set [12], the system named is U-87 MG. Briefly: Antitumor activity against human U-87 MG cells xenografted in female BALB/c nude mouse model assessed as tumor growth inhibition at 0.37 MBq, iv measured after 8 days postinjection relative to control. The format is functional, U-87MG ATCC. The note with it: time 8 day.
Data set [13] deals with U-87 MG. Briefly: Antitumor activity against human U-87 MG cells xenografted in female BALB/c nude mouse model assessed as tumor growth inhibition at 0.74 MBq, iv measured after 8 days postinjection relative to control. As to conditions: time 8 day. It counts as functional, U-87MG ATCC.
In data set [14] the test system is U-87 MG. As to the kind of experiment: Antitumor activity against human U-87 MG cells xenografted in female BALB/c nude mouse model assessed as tumor growth inhibition at 1.11 MBq, iv measured after 8 days postinjection relative to control. The format is functional, U-87MG ATCC. The note with it: time 8 day.
The test system of data set [15] is U-87 MG. Briefly: Antitumor activity against human U-87 MG cells xenografted in female BALB/c nude mouse model assessed as tumor growth inhibition at 0.37 MBq, iv measured after 36 days postinjection relative to control. It counts as functional, U-87MG ATCC. The note with it: time 36 day.
For data set [16], the system named is U-87 MG. Briefly: Antitumor activity against human U-87 MG cells xenografted in female BALB/c nude mouse model assessed as tumor growth inhibition at 0.74 MBq, iv measured after 36 days postinjection relative to control. The format is functional, U-87MG ATCC. As to conditions: time 36 day.
Data set [17] can be described thus: Toxicity in female BALB/c nude mouse model assessed as animal death at 0.74 MBq, iv measured after 38 days. The note with it: in vivo, 912 h, time 38 day. The format is organism-based.
Data set [18] in a line: Toxicity in female BALB/c nude mouse model assessed as animal death at 1.11 MBq, iv measured after 10 days. It counts as organism-based. The note with it: in vivo, 240 h, time 10 day.
Data set [19] in a line: Toxicity in female BALB/c nude mouse model assessed as body weight loss measured at 0.74 to 1.11 MBq, iv after 40 days of postinjection. It counts as organism-based. As to conditions: in vivo, 960 h, dose 0.74-1.11 MBq, time 40 day.
A short description of data set [20]: Toxicity in female BALB/c nude mouse assessed as red blood cell count at 0.37 to 1.11 MBq, iv measured after 7 days of postinjection by blood analysis. The format is organism-based. The note with it: in vivo, 168 h, dose 0.37-1.11 MBq, time 7 day.
Data set [21] can be described thus: Toxicity in female BALB/c nude mouse assessed as effect on liver at 0.37 to 1.11 MBq, iv measured after 7 days of postinjection by H and E staining based analysis. It counts as organism-based. As to conditions: in vivo, 168 h, dose 0.37-1.11 MBq, time 7 day.
A short description of data set [22]: Toxicity in female BALB/c nude mouse assessed as hemoglobin indices at 0.37 to 1.11 MBq, iv measured after 7 days of postinjection by blood analysis. The format is organism-based. The note with it: in vivo, 168 h, dose 0.37-1.11 MBq, time 7 day.
Data set [23] is described as follows: Toxicity in female BALB/c nude mouse assessed as decrease platelet count at 0.37 to 1.11 MBq, iv measured after 7 days of postinjection by blood analysis. The format is organism-based. The note with it: in vivo, 168 h, dose 0.37-1.11 MBq, time 7 day.
The nature of data set [24]: Toxicity in female BALB/c nude mouse assessed as effect on lung at 0.37 to 1.11 MBq, iv measured after 7 days of postinjection by H and E staining based analysis. It counts as organism-based. The note with it: in vivo, 168 h, dose 0.37-1.11 MBq, time 7 day.
The nature of data set [25]: Toxicity in female BALB/c nude mouse assessed as effect on kidney at 0.37 to 1.11 MBq, iv measured after 7 days of postinjection by H and E staining based analysis. The format is organism-based. The note with it: in vivo, 168 h, dose 0.37-1.11 MBq, time 7 day.
Data set [26] in a line: Toxicity in female BALB/c nude mouse assessed as effect on stomach at 0.37 to 1.11 MBq, iv measured after 7 days of postinjection by H and E staining based analysis. It counts as organism-based. As to conditions: in vivo, 168 h, dose 0.37-1.11 MBq, time 7 day.
The nature of data set [27]: Toxicity in female BALB/c nude mouse assessed as thyroid gland damage at 1.11 MBq, iv measured after 7 days of postinjection by H and E staining based analysis. The note with it: in vivo, 168 h, time 7 day. The format is organism-based.
A short description of data set [28]: Stability of the compound in fetal bovine serum incubated for 3 to 24 hrs by RCP analysis (Del). The format is ADME, cell-free. The note with it: cattle, time 3-24 hrs.
Data set [29] can be described thus: Drug uptake in human FAPalpha-negative MCF7 cells incubated for 120 min by gamma counter analysis relative to control. It counts as ADME, cell-based. The note with it: mcf7, 2 h.
Data set [30] deals with U-87 MG. Briefly: Antitumor activity against human U-87 MG cells assessed as inhibition of cell proliferation by measuring reduction in number of Ki67 positive cells at 1.11 MBq, iv administered for 7 days by immunohistochemical analysis. The format is functional, organism-based. The note with it: U-87MG ATCC, time 7.0 day, tested as the 211At-labelled form.
In data set [31] the test system is U-87 MG. Briefly: Antitumor activity against human U-87 MG cells assessed as induction of apoptosis in tumor tissue at 1.11 MBq, iv by TUNEL analysis. It counts as functional, organism-based. As to conditions: U-87MG ATCC, tested as the 211At-labelled form.
Data set [32] has as its system U-87 MG. As to the kind of experiment: Antitumor activity against human U-87 MG cells xenografted in female BALB/c nude mouse model assessed as increase in survival time at 0.74 to 1.11 MBq, iv measured upto 70 days postinjection. The note with it: U-87MG ATCC, dose 0.74-1.11 MBq, time <= 70.0 day, tested as the 211At-labelled form. It counts as functional, organism-based.

Data set [33] is described as follows: Drug uptake in human FAPalpha-positive U-87 MG cells incubated for 120 min by gamma counter analysis relative to control. The format is ADME, cell-based. The note with it: u-87mg atcc, 2 h.
Data set [34] can be described thus: Drug uptake in mouse FAPalpha-negative 4T1 cells incubated for 120 min by gamma counter analysis relative to control. The format is ADME, cell-based. The note with it: 4t1, 2 h.

Calls of active or inactive are those of the source. The calls are words filed in the database; no cut-off is given here.

T1 sequence (P02768 whole entry): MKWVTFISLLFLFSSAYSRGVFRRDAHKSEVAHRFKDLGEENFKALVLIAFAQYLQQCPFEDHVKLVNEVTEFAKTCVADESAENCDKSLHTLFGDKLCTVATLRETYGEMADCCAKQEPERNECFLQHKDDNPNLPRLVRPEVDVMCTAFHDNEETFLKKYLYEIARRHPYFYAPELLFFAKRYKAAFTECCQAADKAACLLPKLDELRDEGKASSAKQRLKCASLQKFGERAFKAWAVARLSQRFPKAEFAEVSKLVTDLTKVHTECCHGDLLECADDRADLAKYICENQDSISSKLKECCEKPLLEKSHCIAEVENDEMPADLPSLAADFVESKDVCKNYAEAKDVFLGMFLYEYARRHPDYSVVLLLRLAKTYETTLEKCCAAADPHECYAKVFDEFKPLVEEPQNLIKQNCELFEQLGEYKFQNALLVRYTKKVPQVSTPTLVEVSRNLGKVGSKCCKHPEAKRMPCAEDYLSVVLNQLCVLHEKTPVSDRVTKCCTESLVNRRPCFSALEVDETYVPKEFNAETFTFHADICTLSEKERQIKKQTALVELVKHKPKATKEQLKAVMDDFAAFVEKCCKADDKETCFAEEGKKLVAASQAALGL

For the molecule `N#C[C@@H]1CC(F)(F)CN1C(=O)CNC(=O)c1ccnc2ccc(OCCCN3CCN(C(=O)CCCc4ccc([211At])cc4)CC3)cc12`, the Stability came out at 91.4% in data set [1] and 88.17% in [2]. Moreover, the Activity is 7.63% on Albumin [3]; 3.54% at Albumin [5]; 4.01% on Albumin [6]; “Toxic” in data set [17]; “Toxic” in [18]; “Non-toxic” in data set [19]. Further, the Activity result is “Non-toxic” in [20]; “Non-toxic” in data set [21]; “Non-toxic” in [22]; “Toxic” in data set [23]; “Non-toxic” in [24]; “Non-toxic” in data set [25]. Moreover, the Activity entry in [26] is “Non-toxic”; in data set [27], “Toxic”. In addition, in [4], the logP was 2.37. Further, the Drug uptake was 2.06% in data set [7], 40.8% in data set [8] and 12.86% in data set [9]. Also, the “inhibition (INH)” value in the data set with U-87 MG [10] turned out to be 70.95%; with U-87 MG [11], 48.58%. Also, the TGI with U-87 MG [12] is given as 84.98%; in the data set on U-87 MG [13], 92.28%; in the data set on U-87 MG [14], 94.99%; in the data set on U-87 MG [15], 10.46%; with U-87 MG [16], 4.2%.
In turn, `N#C[C@@H]1CC(F)(F)CN1C(=O)CNC(=O)c1ccnc2ccc(OCCCN3CCN(C(=O)c4ccc([211At])cc4)CC3)cc12` showed a logP in [4] of 1.96. Besides, the Stability in data set [28] is listed as 71%.
With `N#C[C@@H]1CC(F)(F)CN1C(=O)CNC(=O)c1ccnc2ccc(OCCCN3CCN(C(=O)CCCc4ccc([131I])cc4)CC3)cc12`, in [4], the logP was found to be 2.43. Also, the Drug uptake in [7] is on record as 3.71%; in [29], 7.77%.
Take `N#C[C@@H]1CC(F)(F)CN1C(=O)CNC(=O)c1ccnc2ccc(OCCCN3CCN(C(=O)CCCc4ccc([At])cc4)CC3)cc12`: the result in the data set with U-87 MG [30], in the data set on U-87 MG [31] and in the data set with U-87 MG [32] was Active.
`N#C[C@@H]1CC(F)(F)CN1C(=O)CNC(=O)c1ccnc2ccc(OCCCN3CCN(C(=O)c4ccc([131I])cc4)CC3)cc12`: in data set [4], the logP worked out at 2.12.
For the molecule `[211AtH]`, the results for the Drug uptake in data set [33] and in data set [34] were 2.75% and 11.22%, respectively.
